{"source": "patent US20240252697A1", "about": "“INACTIVATION OF PATHOGENS IN EX VIVO BLOOD PRODUCTS IN STORAGE BAGS USING VISIBLE LIGHT” (priority 2015, published 2024)", "system": "feline calicivirus (FCV)", "experiment": "405 nm light inactivation of FCV suspended in supplemented minimal medium, counted by plaque assay on FEA cells", "type": "cell-based, feline calicivirus vaccine strain F9", "note": "Marks after values point to notes of the source that are not given here.", "data": [{"smiles": "Cc1cc2nc3c(=O)[nH]c(=O)nc-3n(C[C@H](O)[C@H](O)[C@H](O)CO)c2cc1C", "note": "[Riboflavin]", "values": [{"measurement": "Log10 reduction/inactivation of FCV", "setting": "FCV in MM plus components at DMEM concentrations, after", "result": 1.3, "unit": "Log10"}, {"measurement": "Exposed Viral Population (±St Dev)", "setting": "FCV in minimal media plus photosensitive components at DMEM concentrations, 155 mW cm^−2, mean count n = 3 ± SD", "result": "3.77 ± 0.61"}, {"measurement": "Log10 Reduction", "setting": "FCV in minimal media plus photosensitive components, 155 mW cm^−2, exposed vs non-exposed control, asterisk = P ≤ 0.05", "result": "1.28* Log10"}]}]}
